This passage reports IC50 and ΔTm results from ChEMBL document CHEMBL2424650, “Optimization of anti-proliferative activity using a screening approach with a series of bis-heterocyclic G-quadruplex ligands” (Bioorg Med Chem Lett, 2013).

Bounds are passed on as bounds.

The subject of one experiment is A549. The experiment can be described thus: Antiproliferative activity against human A549 cells after 96 hrs by SRB assay. The experiment is classed as functional, cell-based. The settings on record: A549, 96 h. A general note: Sulforhodamine B stains cellular protein and so reports cell mass.
Experiment [1] is described as follows: Antiproliferative activity against human RCC4 cells after 96 hrs by SRB assay. It is filed as functional, cell-based. The note with it: RCC4, 96 h.
Experiment [2] in a line: Binding affinity to duplex DNA (unknown origin) assessed as change in melting temperature at 1 uM by FRET assay.
Experiment [3] can be described thus: Binding affinity to 21-mer Hsp90A promoter quadruplex (unknown origin) assessed as change in melting temperature at 5 uM by FRET assay.
The species entered for experiment [4] is Homo sapiens. Put plainly: Binding affinity to human F21T G4-telomeric quadruplex assessed as change in melting temperature at 5 uM by FRET assay.
Experiment [5] is filed under the species Homo sapiens. Put plainly: Binding affinity to human F21T G4-telomeric quadruplex assessed as change in melting temperature at 1 uM by FRET assay.
Experiment [6] can be described thus: Binding affinity to c-kit2 G4-quadruplex DNA (unknown origin) assessed as change in melting temperature at 5 uM by FRET assay.
In the next experiment the test system is MCF7. Put plainly: Antiproliferative activity against human MCF7 cells after 96 hrs by SRB assay. It is filed as functional, cell-based. The note with it: MCF7, 96 h.
Experiment [7] can be described thus: Binding affinity to duplex DNA (unknown origin) assessed as change in melting temperature at 5 uM by FRET assay.
Experiment [8] can be described thus: Binding affinity to 21-mer Hsp90A promoter quadruplex (unknown origin) assessed as change in melting temperature at 1 uM by FRET assay.
A short description of experiment [9]: Binding affinity to c-kit2 G4-quadruplex DNA (unknown origin) assessed as change in melting temperature at 1 uM by FRET assay.
Experiment [10] can be described thus: Antiproliferative activity against human […] cells after 96 hrs by SRB assay. The experiment is classed as cell-based. The settings on record: WI-38, 96 h.
Another experiment concerns 786-0. The experiment can be described thus: Antiproliferative activity against human 786-0 cells after 96 hrs by SRB assay. The note with it: 786-0, 96 h. The experiment is classed as functional, cell-based.

By IC50 is commonly meant the point on the concentration scale where inhibition reaches its midpoint. What is called ΔTm is the shift of the melting midpoint relative to a reference. `CN1CCN(CCCNc2cccc(-c3ncc(-c4ccc5ccc(-c6cnc(-c7cccc(NCCCN8CCN(C)CC8)c7)o6)cc5c4)o3)c2)CC1`: the IC50 came to 1600 nM in the experiment with A549; 2100 nM in experiment [1]; 1900 nM in the experiment on MCF7; 3100 nM in experiment [10]; 1200 nM with 786-0. The ΔTm was 0 °C in [2]; less than 10 °C in experiment [3]; less than 10 °C in the experiment filed under Homo sapiens [4]; less than 2 °C in the experiment listed under Homo sapiens [5]; less than 10 °C in experiment [6]; 0 °C in experiment [7]. The ΔTm in experiment [8] is 2.5 °C; in [9] it was less than 2 °C.

In the case of `CN1CCN(CCCNc2cccc(-c3ncc(-c4cccc(-c5cnc(-c6cccc(NCCCN7CCN(C)CC7)c6)o5)c4)o3)c2)CC1`, the IC50 was determined as 1200 nM in the experiment with A549; 1200 nM in [1]; 1000 nM with MCF7; 1100 nM in experiment [10]; 900 nM with 786-0. Also, the ΔTm in experiment [2] was 0 °C; in experiment [3], 25.6 °C; in the experiment filed under Homo sapiens [4] it was 20.1 °C; in the experiment filed under Homo sapiens [5] it was less than 2 °C; in experiment [6] it was 18.3 °C; in [7], 0 °C. For the same compound, the ΔTm in experiment [8] and in experiment [9] was less than 2 °C each time.

Consider `c1cc(-c2cnc(-c3cccc(NCCN4CCCC4)c3)o2)cc(-c2cnc(-c3cccc(NCCN4CCCC4)c3)o2)c1`, for which the IC50 in the experiment with A549 is 600 nM; in experiment [1], 1100 nM; in the experiment with MCF7, 2100 nM; in experiment [10] it was 1000 nM; in the experiment on 786-0, 1100 nM. In addition, the shift in melting temperature (ΔTm) in experiment [2] was 0 °C; in the experiment listed under Homo sapiens [4], 24.7 °C; in the experiment listed under Homo sapiens [5], less than 2 °C; in [6] it was 17 °C; in [7] it was 6.8 °C; in experiment [8], less than 2 °C. In addition, the ΔTm in experiment [9] is less than 2 °C.

For the compound `CN1CCN(CCCNc2ccc(-n3cc(-c4ccc5ccc(-c6cn(-c7ccc(NCCCN8CCN(C)CC8)cc7)nn6)cc5c4)nn3)cc2)CC1`, the IC50 (with A549; in [1]; in the experiment with MCF7; in experiment [10]; with 786-0) was greater than 25000 nM in each case. For the same compound, the ΔTm is 0 °C in experiment [2]; less than 10 °C in experiment [3]; less than 10 °C in the experiment listed under Homo sapiens [4]; less than 2 °C in the experiment listed under Homo sapiens [5]; less than 10 °C in [6]; 0 °C in experiment [7]. Besides, the ΔTm in experiment [8] and in experiment [9] was less than 2 °C throughout.

With `CCN(CC)CCNc1cccc(-c2ncc(-c3cccc(-c4cnc(-c5cccc(NCCN(CC)CC)c5)o4)c3)o2)c1`, the IC50 in the experiment on A549 is 2500 nM; in experiment [1], 1100 nM; in the experiment on MCF7 it was 3100 nM; in experiment [10], 2800 nM; in the experiment on 786-0, 1300 nM. The shift in melting temperature (ΔTm) was 0 °C in [2]; 19.5 °C in experiment [3]; 13.3 °C in the experiment filed under Homo sapiens [4]; less than 2 °C in the experiment filed under Homo sapiens [5]; 13.6 °C in experiment [6]; 0 °C in experiment [7]. For the same compound, the ΔTm in experiment [8] and in [9] was less than 2 °C each time.

Take `c1cc(-c2cnc(-c3cccc(OCCN4CCCC4)c3)o2)cc(-c2cnc(-c3cccc(OCCN4CCCC4)c3)o2)c1`: the IC50 turned out to be 1000 nM in the experiment with A549; 1300 nM in experiment [1]; 1200 nM with MCF7; 1000 nM in experiment [10]; 700 nM in the experiment with 786-0. Moreover, the ΔTm in experiment [2] was 0 °C; in experiment [3], 27.7 °C; in the experiment listed under Homo sapiens [4], 25.9 °C; in the experiment filed under Homo sapiens [5] it was less than 2 °C; in [6], 20.3 °C; in experiment [7], 5.3 °C. Also, the ΔTm in experiment [8] was 3.4 °C; in experiment [9], less than 2 °C.

Turning to `c1cc(-c2cnc(-c3cccc(CN4CCCCC4)c3)o2)cc(-c2cnc(-c3cccc(CN4CCCCC4)c3)o2)c1`, the IC50 in the experiment with A549 is 1200 nM; in [1], 1900 nM; with MCF7 it was 1400 nM; in experiment [10], 4400 nM; in the experiment on 786-0, 2300 nM. Besides, the ΔTm was 2 °C in experiment [2], less than 2 °C in the experiment listed under Homo sapiens [5], 5 °C in experiment [8] and less than 2 °C in [9].

Regarding `CN1CCN(CCCNc2cccc(-n3cc(-c4ccc5ccc(-c6cn(-c7cccc(NCCCN8CCN(C)CC8)c7)nn6)cc5c4)nn3)c2)CC1`, the IC50 in the experiment with A549 is greater than 25000 nM; in [1], 8400 nM; in the experiment with MCF7 it was greater than 25000 nM; in experiment [10] it was 15300 nM; in the experiment on 786-0 it was 8700 nM. Besides, the ΔTm is 0 °C in experiment [2]; less than 10 °C in [3]; less than 10 °C in the experiment listed under Homo sapiens [4]; 2.9 °C in the experiment listed under Homo sapiens [5]; less than 10 °C in [6]; 0 °C in [7]. Further, the ΔTm turned out to be 5.7 °C in [8] and 2.4 °C in [9].
